Columns and labels:
Type in all cases: functional, cell-based
[1] = tested on: MCF-10A; test: Antiproliferative activity against human MCF-10A cells assessed as reduction in cell viability incubated for 24 hrs by MTT assay
[2] = tested on: MDA-MB-231; test: Antiproliferative activity against human MDA-MB-231 cells assessed as reduction in cell viability incubated for 24 hrs by MTT assay; conditions: MDA-MB-231, 24 h
[3] = tested on: SK-BR-3; test: Antiproliferative activity against human SK-BR-3 cells assessed as reduction in cell viability incubated for 24 hrs by MTT assay; conditions: SK-BR-3, 24 h

Structure (SMILES)	IC50 [1]	IC50 [2]	IC50 [3]
O=C(CCCCCCCCc1ccc(O)cc1)c1c(O)cccc1O [MALABARICONE B]	62 µM	19.1 µM	13.5 µM
O=C(CCCCCCCCc1ccc(O)c(O)c1)c1c(O)cccc1O [MALABARICONE C]	97.3 µM	19.6 µM	16.4 µM
